Measurements: ChEMBL document CHEMBL6182948 (J Med Chem, 2025)

Legend:
CYP1B1 = biological target: T1, CYP1B1 (Homo sapiens, UniProt Q16678); experiment: Inhibition of human recombinant CYP1B1 using 7-ethoxyresorufin as substrate at 100 uM incubated under dark condition for 30 mins in presence of NADPH by EROD fluorescence assay relative to control; assay type: ADME; settings: recombinant CYP1B1, probe 7-ethoxyresorufin
T1 sequence (Q16678 whole entry): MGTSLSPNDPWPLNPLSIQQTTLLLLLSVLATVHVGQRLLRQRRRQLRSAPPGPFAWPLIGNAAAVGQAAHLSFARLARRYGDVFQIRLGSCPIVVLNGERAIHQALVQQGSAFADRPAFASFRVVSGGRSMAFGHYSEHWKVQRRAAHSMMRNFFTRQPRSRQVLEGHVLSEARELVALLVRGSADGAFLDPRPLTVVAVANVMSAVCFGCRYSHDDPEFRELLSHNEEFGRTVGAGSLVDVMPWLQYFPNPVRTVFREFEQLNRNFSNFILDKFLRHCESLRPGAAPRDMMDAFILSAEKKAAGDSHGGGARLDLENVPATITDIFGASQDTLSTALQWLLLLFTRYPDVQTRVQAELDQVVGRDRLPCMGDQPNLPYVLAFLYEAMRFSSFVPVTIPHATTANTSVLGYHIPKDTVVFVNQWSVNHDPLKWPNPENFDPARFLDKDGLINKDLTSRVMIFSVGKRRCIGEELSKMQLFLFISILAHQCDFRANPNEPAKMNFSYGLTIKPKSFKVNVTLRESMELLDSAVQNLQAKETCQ

Cytochrome P450 1B1 = biological target: T2, Cytochrome P450 1B1 (Homo sapiens, UniProt Q16678); experiment: Inhibition of human recombinant CYP1B1 using 7-ethoxyresorufin as substrate incubated under dark condition for 30 mins in presence of NADPH by EROD fluorescence assay; assay type: ADME
T2 sequence (Q16678 whole entry): T1 sequence (Q16678 whole entry)

Cytochrome P450 1A1 = biological target: T3, Cytochrome P450 1A1 (Homo sapiens, UniProt P04798); experiment: Inhibition of human recombinant CYP1A1 using 7-ethoxyresorufin as substrate incubated under dark condition for 15 mins in presence of NADPH by EROD fluorescence assay; assay type: ADME
T3 sequence (P04798 whole entry): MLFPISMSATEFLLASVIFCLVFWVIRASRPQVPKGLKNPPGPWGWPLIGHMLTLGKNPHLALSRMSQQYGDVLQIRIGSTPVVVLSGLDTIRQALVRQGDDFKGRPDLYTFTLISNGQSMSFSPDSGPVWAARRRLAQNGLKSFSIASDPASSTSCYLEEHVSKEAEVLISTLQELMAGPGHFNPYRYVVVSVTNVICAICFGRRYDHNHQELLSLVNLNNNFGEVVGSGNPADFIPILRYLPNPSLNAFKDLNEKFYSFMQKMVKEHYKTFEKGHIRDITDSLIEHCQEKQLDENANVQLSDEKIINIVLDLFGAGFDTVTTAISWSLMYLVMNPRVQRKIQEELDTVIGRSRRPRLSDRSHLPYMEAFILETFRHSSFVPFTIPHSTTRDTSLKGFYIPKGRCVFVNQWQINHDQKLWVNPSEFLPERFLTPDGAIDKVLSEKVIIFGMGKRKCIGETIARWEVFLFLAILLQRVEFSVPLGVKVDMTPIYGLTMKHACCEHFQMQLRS

Cytochrome P450 1A2 = biological target: T4, Cytochrome P450 1A2 (Homo sapiens, UniProt P05177); experiment: Inhibition of human recombinant CYP1A2 using 7-ethoxyresorufin as substrate incubated under dark condition for 45 mins in presence of NADPH by EROD fluorescence assay; assay type: ADME
T4 sequence (P05177 whole entry): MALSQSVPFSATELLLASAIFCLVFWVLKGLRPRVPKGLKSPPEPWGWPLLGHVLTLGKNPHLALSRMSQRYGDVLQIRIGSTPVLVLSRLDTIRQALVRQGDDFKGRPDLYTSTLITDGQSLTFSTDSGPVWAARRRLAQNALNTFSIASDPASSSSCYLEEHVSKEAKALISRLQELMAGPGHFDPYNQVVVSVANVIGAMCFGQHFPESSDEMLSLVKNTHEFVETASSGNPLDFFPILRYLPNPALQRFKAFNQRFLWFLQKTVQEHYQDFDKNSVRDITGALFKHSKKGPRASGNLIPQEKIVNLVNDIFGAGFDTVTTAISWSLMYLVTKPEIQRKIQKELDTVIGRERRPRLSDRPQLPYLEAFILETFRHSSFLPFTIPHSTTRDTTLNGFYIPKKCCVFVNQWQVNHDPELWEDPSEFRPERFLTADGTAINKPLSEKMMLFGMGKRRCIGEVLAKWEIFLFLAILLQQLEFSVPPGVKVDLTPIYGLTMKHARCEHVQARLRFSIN

Homo sapiens [1] = species: Homo sapiens; experiment: Selectivity index, ratio of IC50 for human recombinant CYP1A1 to IC50 for human recombinant CYP1B1 using 7-ethoxyresorufin as substrate
Homo sapiens [2] = species: Homo sapiens; experiment: Selectivity index, ratio of IC50 for human recombinant CYP1A2 to IC50 for human recombinant CYP1B1 using 7-ethoxyresorufin as substrate

Row | Compound | inhibition at 0.5 h, 100 µM (CYP1B1) | IC50 (Cytochrome P450 1B1) | IC50 (Cytochrome P450 1A1) | IC50 (Cytochrome P450 1A2) | Ratio IC50 (Homo sapiens [1]) | Ratio IC50 (Homo sapiens [2])
1 | COc1cc(NC(=O)c2nc(-c3ccccc3)cs2)cc(OC)c1OC | 62.8% |  |  |  |  | 
2 | O=C(Nc1ccccc1F)c1nc(-c2ccccc2)cs1 | 69.6% |  |  |  |  | 
3 | NC(=O)c1ccc(NC(=O)c2nc(-c3ccccc3)cs2)cc1 | 54.6% |  |  |  |  | 
4 | O=C(Nc1ccc(I)cc1)c1nc(-c2ccccc2)cs1 | 100% | 0.4 nM | 164 nM | 151 nM | 410 | 377
5 | Cc1ccc(NC(=O)c2nc(-c3ccccc3)cs2)cc1 | 94.2% | 37 nM | 977 nM | 1000 nM | 26.4 | 27.1
6 | O=C(Nc1ccc(Cl)cc1)c1nc(-c2ccccc2)cs1 | 102% | 1.18 nM | 213 nM | 386 nM | 180 | 327
7 | O=C(Nc1ccc(OC(F)F)cc1)c1nc(-c2ccccc2)cs1 | 100% | 0.26 nM | 210 nM | 679 nM | 808 | 2610
8 | N#Cc1ccc(NC(=O)c2nc(-c3ccccc3)cs2)cc1 | 99.3% | 7.68 nM | 870 nM | 563 nM | 113 | 73.4
9 | COc1cc(NC(=O)c2nc(-c3ccccc3)cs2)cc(OC)c1 | 87.4% | 4.65 nM | 621 nM | 724 nM | 134 | 156
10 | O=C(Nc1ccc(Cl)cc1Cl)c1nc(-c2ccccc2)cs1 | 102% | 3.57 nM | 251 nM | 488 nM | 70.3 | 137
11 | COc1cc(Cl)cc(NC(=O)c2nc(-c3ccccc3)cs2)c1 | 96.5% | 17.3 nM | 230 nM | 619 nM | 13.3 | 35.9
12 | O=C(Nc1ccc(-n2ccnc2)cc1)c1nc(-c2ccccc2)cs1 | 102% | 1.49 nM | 10.8 nM | 2.4 nM | 7.2 | 1.6
13 | COc1ccc(OC)c(NC(=O)c2nc(-c3ccccc3)cs2)c1 | 91.2% | 22 nM | 404 nM | 611 nM | 18.4 | 27.8
14 | O=C(Nc1ccc(C(F)F)cc1)c1nc(-c2ccccc2)cs1 | 99.9% | 2.39 nM | 1720 nM | 1070 nM | 721 | 447
15 | O=C(Nc1ccc(F)cc1)c1nc(-c2ccccc2)cs1 | 86.7% | 24 nM | 280 nM | 221 nM | 11.7 | 9.2
16 | O=C(Nc1cccc(Cl)c1)c1nc(-c2ccccc2)cs1 | 77.4% |  |  |  |  | 
17 | O=C(Nc1ccc(C(F)(F)F)cc1)c1nc(-c2ccccc2)cs1 | 99.5% | 0.47 nM | 450 nM | 450 nM | 951 | 952
18 | O=C(Nc1ccc(Cl)cc1Cl)c1nc(-c2ccccc2F)cs1 |  | 2.23 nM | 197 nM | 142 nM | 88.3 | 63.6
19 | COc1cc(NC(=O)c2nc(-c3ccc(F)cc3)cs2)cc(OC)c1 |  | 3.83 nM | 414 nM | > 10000 nM | 108 | > 2610
20 | NC(=O)c1cccc(-c2csc(C(=O)Nc3ccc(OC(F)F)cc3)n2)c1 |  | 2.01 nM | 64.4 nM | 5010 nM | 32 | 2490

Row | Compound | inhibition at 0.5 h, 100 µM (CYP1B1) | IC50 (Cytochrome P450 1B1) | IC50 (Cytochrome P450 1A1) | IC50 (Cytochrome P450 1A2) | Ratio IC50 (Homo sapiens [1]) | Ratio IC50 (Homo sapiens [2])
21 | O=C(Nc1ccc(OC(F)F)cc1)c1nc(-c2ccc(F)cc2)cs1 |  | 0.47 nM | 58.1 nM | 820 nM | 122 | 1730
22 | CC(C)c1ccc(-c2csc(C(=O)Nc3cc(Cl)cc(Cl)c3)n2)cc1 |  | 276 nM | 456 nM | 9540 nM | 1.7 | 34.5
23 | O=C(Nc1ccc(I)cc1)c1nc(-c2ccc(F)cc2)cs1 |  | 3.97 nM | 127 nM | 641 nM | 31.9 | 162
24 | O=C(Nc1ccccc1)c1nc(-c2ccccc2)cs1 |  | 27 nM | 597 nM | 441 nM | 22.1 | 16.3
25 | O=C(Nc1cc(Cl)cc(Cl)c1)c1nc(-c2ccccc2Cl)cs1 |  | 7.95 nM | 203 nM | 537 nM | 25.6 | 67.6
26 | CCc1sc(C(=O)Nc2cc(Cl)cc(Cl)c2)nc1-c1ccc(F)cc1 |  | 101 nM | 226 nM | > 100000 nM | 2.2 | > 990
27 | COc1ccc(NC(=O)c2nc(-c3ccccc3)cs2)c(OC)c1 | 89.3% | 25.2 nM | 785 nM | 438 nM | 31.1 | 
28 | Cc1sc(C(=O)Nc2ccc(OC(F)F)cc2)nc1-c1cccc(F)c1 |  | 3.04 nM | 188 nM | 2700 nM | 61.9 | 889
29 | O=C(Nc1cc(Cl)cc(Cl)c1)c1nc(-c2ccc(O)cc2)cs1 |  | 41.6 nM | 758 nM | 40300 nM | 18.2 | 967
30 | O=C(Nc1cc(Cl)cc(Cl)c1)c1nc(-c2cncc(Cl)c2)cs1 |  | 1.77 nM | 11.5 nM | 9.7 nM | 6.5 | 5.5
31 | O=C(Nc1ccc(-c2ccccc2)cc1)c1nc(-c2ccccc2)cs1 | 21.2% |  |  |  |  | 
32 | CC(=O)Nc1ccc(-c2csc(C(=O)Nc3cc(Cl)cc(Cl)c3)n2)cc1 |  | 242 nM | 167 nM | > 100000 nM | 0.7 | > 413
33 | O=C(Nc1ccc(N2CCNCC2)cc1)c1nc(-c2ccccc2)cs1 | 8.7% |  |  |  |  | 
34 | Cc1sc(C(=O)Nc2ccc(C(F)(F)F)cc2)nc1-c1cccc(F)c1 |  | 2.12 nM | 168 nM | 2330 nM | 79.2 | 1100
35 | O=C(Nc1ccc(C(F)(F)F)cc1)c1nc(-c2ccc(Cl)cc2)cs1 |  | 0.49 nM | 69.2 nM | 248 nM | 142 | 510
36 | O=C(Nc1ccc(N2CCOCC2)cc1)c1nc(-c2ccccc2)cs1 | 20.5% |  |  |  |  | 
37 | O=C(Nc1cc(Cl)cc(Cl)c1)c1nc(-c2cccc(F)c2)cs1 |  | 2.51 nM | 264 nM | 4720 nM | 105 | 1880
38 | O=C(Nc1ccc(OC(F)F)cc1)c1nc(-c2cccc(Cl)c2)cs1 |  | 1.04 nM | 55.7 nM | 4690 nM | 53.5 | 4500
39 | COc1cc(NC(=O)c2nc(-c3ccccc3F)cs2)cc(OC)c1 |  | 16.6 nM | 358 nM | 1440 nM | 21.5 | 86.5
